Earlier results in US10260097B2, “Method of using a gene expression profile to determine cancer responsiveness to an anti-angiogenic agent” (Almac Diagnostics Limited, priority 2011, dated 2019).

Tests used:
ovarian cancer patients = ovarian cancer patients receiving bevacizumab monotherapy
renal cancer patients = renal cancer patients receiving bevacizumab monotherapy
rectal cancer patients = rectal cancer patients receiving bevacizumab monotherapy
most cancers = conditions: bevacizumab added to cytotoxic chemotherapy

bevacizumab
patients showing partial regression (ovarian cancer patients): 21%
patients showing partial regression (renal cancer patients): 10%
patients showing partial regression (rectal cancer patients): 33%
overall survival (OS) benefit (most cancers): no overall survival (OS) benefit
